ChEMBL document CHEMBL1201862, “PubChem BioAssay data set” (2004)
Several values for one entry are separate records, joined by “and”; a condition that tells them apart may be missing. Equal values may be shown once.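 Values below derive from 48-hour exposures of cells grown in 96-well plates, with endpoints linearly interpolated between the two concentrations bracketing the appropriate inhibition level. Here, GI50 denotes the concentration required for 50% inhibition of growth.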 Activity calls are given as the source filed them. Cut-off read from the data, not from the text of the source: active = GI50 up to about 1.1 µM and inactive = higher.

Key:
Test in all cases: DTP human tumour cell line panel, 48 h
[1] = tested on: A498
[2] = tested on: A549
[3] = tested on: ACHN
[4] = tested on: COLO 205
[5] = tested on: HCT-15
[6] = tested on: HL-60
[7] = tested on: HOP-62
[8] = tested on: LOX IMVI
[9] = tested on: M14
[10] = tested on: NCI-H226
[11] = tested on: OVCAR-4
[12] = tested on: RXF 393
[13] = tested on: SK-MEL-28
[14] = tested on: SK-MEL-2
[15] = tested on: SNB-19
[16] = tested on: SR
[17] = tested on: TK-10
[18] = tested on: U-251
[19] = tested on: UO-31
[20] = tested on: Malme-3M

Row | Structure (SMILES) | GI50 [1] | GI50 [2] | GI50 [3] | GI50 [4] | GI50 [5] | GI50 [6] | GI50 [7] | GI50 [8] | GI50 [9] | GI50 [10] | GI50 [11] | GI50 [12] | GI50 [13] | GI50 [14] | GI50 [15] | GI50 [16] | GI50 [17] | GI50 [18] | GI50 [19] | GI50 [20]
1 | NN/C(=N\S(=O)(=O)c1cc2ccccc2s1)Nc1ccc(Cl)cc1 | 19.9 µM (inactive) | 19.4 µM (inactive) | 23.1 µM (inactive) | 17.3 µM (inactive) | 30.5 µM | 22.4 µM (inactive) | 18.8 µM (inactive) | 20.8 µM (inactive) | 20.9 µM (inactive) | 19.3 µM (inactive) | 17.5 µM (inactive) | 15.5 µM (inactive) | 25.1 µM (inactive) | 18.1 µM (inactive) | 27 µM (inactive) | 40.1 µM (inactive) | 23 µM (inactive) | 17.7 µM (inactive) | 18 µM (inactive) | 
2 | C1=C(c2ccccc2)Nc2nnnn2C1c1ccccc1 (stereo not drawn) | 37.2 µM (inactive) | 44.5 µM (inactive) | 23.6 µM (inactive) | 48.6 µM (inactive) | 15.3 µM | 21.9 µM (inactive) | 38.5 µM (inactive) | 17.3 µM (inactive) | 23.9 µM (inactive) | 47.4 µM (inactive) |  | 16.7 µM (inactive) |  | 27.5 µM (inactive) | 49.4 µM (inactive) | 12.1 µM (inactive) | 28.6 µM (inactive) | 18.6 µM (inactive) | > 100 µM (inactive) | 
3 | O=c1[nH][nH]c(=O)n1Cc1ccccc1 | > 100 µM (inactive) | > 100 µM (inactive) |  | > 100 µM (inactive) | > 100 µM | > 100 µM (inactive) |  | > 100 µM (inactive) | > 100 µM (inactive) | > 100 µM (inactive) | > 100 µM (inactive) | > 100 µM (inactive) | > 100 µM (inactive) | > 100 µM (inactive) | > 100 µM (inactive) | > 100 µM (inactive) | > 100 µM (inactive) | > 100 µM (inactive) | > 100 µM (inactive) | > 100 µM (inactive)
4 | COc1ccc2[nH]cc([C@@H]3C4CCC(C4)[C@H]3NCc3cccc(CN[C@H]4C5CCC(C5)[C@@H]4c4c[nH]c5ccc(OC)cc45)c3)c2c1 | 1.82 µM (inactive) and 1.78 µM (inactive) | 1.46 µM (inactive) and 1.61 µM (inactive) | 1.76 µM (inactive) and 1.16 µM (inactive) | 401 nM (active) and 577 nM (active) | 0.791 µM and 0.998 µM | 214 nM (active) and 191 nM (active) | 1.62 µM (inactive) and 1.6 µM (inactive) | 244 nM (active) and 235 nM (active) | 640 nM (active) and 600 nM (active) | 2.01 µM (inactive) and 1.91 µM (inactive) | 1.37 µM (inactive) and 1.32 µM (inactive) | 1.36 µM (inactive) and 1.66 µM (inactive) |  | 1.59 µM (inactive) and 1.55 µM (inactive) | 1.53 µM (inactive) and 1.65 µM (inactive) | 231 nM (active) and 250 nM (active) | 1.63 µM (inactive) and 1.51 µM (inactive) |  | 1.36 µM (inactive) and 1.52 µM (inactive) | 1.86 µM (inactive) and 1.88 µM (inactive)
5 | COC(=O)C(=C/c1ccc(OC)cc1)/C(C(=O)O)=C(/C)c1ccccc1 | > 100 µM (inactive) | > 100 µM (inactive) | > 100 µM (inactive) | > 100 µM (inactive) | > 100 µM | > 100 µM (inactive) | > 100 µM (inactive) | > 100 µM (inactive) | > 100 µM (inactive) | > 100 µM (inactive) | > 100 µM (inactive) | > 100 µM (inactive) |  | > 100 µM (inactive) | > 100 µM (inactive) | > 100 µM (inactive) | > 100 µM (inactive) | > 100 µM (inactive) | > 100 µM (inactive) | > 100 µM (inactive)
6 | CC(=O)N1CCn2c1nc1cc(Cl)ccc12 | > 100 µM (inactive) | > 100 µM (inactive) | 34.4 µM (inactive) | > 100 µM (inactive) | 35.2 µM | > 100 µM (inactive) | 19.4 µM (inactive) | 39.2 µM (inactive) | > 100 µM (inactive) | 94.8 µM (inactive) | > 100 µM (inactive) | 20.8 µM (inactive) | > 100 µM (inactive) | 26.1 µM (inactive) | 69 µM (inactive) | > 100 µM (inactive) | 63.1 µM (inactive) | 37.8 µM (inactive) |  | > 100 µM (inactive)
7 | Cc1ccc(S(=O)(=O)NC(=O)C#CCOC2CCCCO2)cc1 (stereo not drawn) | > 100 µM (inactive) | > 100 µM (inactive) | > 100 µM (inactive) |  | > 100 µM | > 100 µM (inactive) |  | > 100 µM (inactive) | > 100 µM (inactive) | > 100 µM (inactive) | > 100 µM (inactive) | > 100 µM (inactive) | > 100 µM (inactive) | 82.8 µM (inactive) | > 100 µM (inactive) | > 100 µM (inactive) | > 100 µM (inactive) | > 100 µM (inactive) | > 100 µM (inactive) | > 100 µM (inactive)
8 | Cc1ccccc1NC(=S)N/N=C(/c1ccccc1)c1ccccn1 | 0.398 µM (active) | 0.0428 µM (active) | < 0.01 µM (active) | < 0.01 µM (active) | < 0.01 µM | < 0.0736 µM (active) | 0.0331 µM (active) | < 0.01 µM (active) | < 0.027 µM (active) | 0.0295 µM (active) | 0.0826 µM (active) | 0.589 µM (active) | 2.3 µM (inactive) | 3.36 µM (inactive) | 1.62 µM (inactive) | < 0.0262 µM (active) | < 0.0295 µM (active) | < 0.01 µM (active) | 0.0266 µM (active) | 
9 | CC1=C(C(=O)NCc2ccccc2)C(/C=C/c2ccccc2)C(C(=O)NCc2ccccc2)=C(C)N1 | > 100 µM (inactive) | > 100 µM (inactive) | > 100 µM (inactive) |  | > 100 µM | > 100 µM (inactive) | > 100 µM (inactive) | > 100 µM (inactive) | > 100 µM (inactive) | > 100 µM (inactive) | > 100 µM (inactive) | > 100 µM (inactive) | > 100 µM (inactive) | > 100 µM (inactive) | > 100 µM (inactive) | > 100 µM (inactive) | > 100 µM (inactive) |  | > 100 µM (inactive) | > 100 µM (inactive)
10 | O=[N+]([O-])/C(Cl)=C/C(=C1/Nc2ccccc2O1)[N+](=O)[O-] | 19 µM (inactive) | 34.8 µM (inactive) | 18.1 µM (inactive) | 21.2 µM (inactive) | 16.6 µM | 11.6 µM (inactive) | 33.7 µM (inactive) | 8.13 µM (inactive) | 19.8 µM (inactive) | 27.4 µM (inactive) | 29 µM (inactive) | 18.1 µM (inactive) | 19.5 µM (inactive) |  | 17.4 µM (inactive) | 8.71 µM (inactive) | 44.1 µM (inactive) | 12.8 µM (inactive) | 15.7 µM (inactive) | 14.3 µM (inactive)
11 | COc1cccc(-c2cc(O)c3c(C)ccnc3n2)c1 | 0.0344 µM (active) | 0.0518 µM (active) | 0.0483 µM (active) | 0.0199 µM (active) | 0.0486 µM | < 0.0114 µM (active) | 0.0463 µM (active) | 0.0625 µM (active) | 0.0239 µM (active) | 0.0272 µM (active) | 18 µM (inactive) | 0.0284 µM (active) |  | 0.0695 µM (active) | 0.031 µM (active) | < 0.01 µM (active) | > 100 µM (inactive) | 0.036 µM (active) | 0.0703 µM (active) | < 0.01 µM (active)
